Measurements as given in US5316919A, “Method of producing 2 KD to 10 KD peptides having no L-methionine residue” (priority 1992, dated 1994).
Where no end group is shown, it is not given here.

Test system: male ICR mice
Experiment: Effects on the blood pressure (caudal vein blood pressure, noninvasive sphygmomanometer) after intravenous injection
Format: in vivo
Details: 40 μg/kg by injection into the caudal vein, male ICR mice of 5 weeks of age
Description: Two of the compounds of the invention were each administered to male ICR mice of 5 weeks of age by injection into the caudal vein at a dose of 40 μg/kg. […]
In addition, the activity was of long duration. The peptides of the invention have therapeutic utility.

Row | Substance | caudal vein blood pressure relative to physiological saline taken as 100% (5 min after administration) [%] | caudal vein blood pressure relative to physiological saline taken as 100% (10 min after administration) [%] | caudal vein blood pressure relative to physiological saline taken as 100% (15 min after administration) [%] | caudal vein blood pressure relative to physiological saline taken as 100% (20 min after administration) [%]
1 | H-HSDAVFTDNYTRLRKQLAVKKYLNSILNGP-OH [Peptide of Reference Example 3, H-His-Ser-Asp-Ala-Val-Phe-Thr-Asp-Asn-Tyr-Thr-Arg-Leu-Arg-Lys-Gln-Leu-Ala- Val-Lys-Lys-Tyr-Leu-Asn-Ser-Ile-Leu-Asn-Gly-Pro-OH] | 58.9 | 74.1 | 94.3 | 105.5
2 | H-HSDAVFTDNYTRLRKQLAVKKYLNSILNGPEA-OH [Peptide of Reference Example 1, H-His-Ser-Asp-Ala-Val-Phe-Thr-Asp-Asn-Tyr-Thr-Arg-Leu-Arg-Lys-Gln-Leu-Ala- Val-Lys-Lys-Tyr-Leu-Asn-Ser-Ile-Leu-Asn-Gly-Pro-Glu-Ala-OH] | 71.1 | 66.4 | 74.9 | 77.9
3 | vasoactive intestinal polypeptide (HSDAVFTDNYTRLRKQMAVKKYLNSILN; ends and bridges not checked; UniProt P01282 125-152, looked up) [Naturally occurring VIP, reference compound] | 83.3 | 97.2 | 95.9 | 102.8
